In patent US10144715B2, “Piperazine derivatives as liver X receptor modulators” (priority 2014, dated 2018):
Like-named read-outs stand apart in the source and are kept apart here.

Legend:
[1] = target: Gal4 DNA binding domain fused to the LBD of LXRα in HEK293 cells (Homo sapiens (Human), UniProt Q13133); test: LXR luciferase transcriptional reporter gene assay, agonist mode, LXRα; assay type: cell-based; conditions: for EC50: read-out: Cell LXRα EC50
[2] = target: T1, LXR α LBD protein (Homo sapiens (Human), UniProt Q13133); test: Human LXRα coactivator recruitment FRET assay, agonist mode; assay type: biochemical
Experimental: Two μL of the DMSO solutions were transferred to the plate and 38 μL of 10 nM LXRα-LBD or LXRβ-LBD (2×) were added immediately to the wells. The plate was shaken for 5 min at rt on an orbital micro shaker (DPC MicroMix® 5), after which 40 μL of 200 nM fluorescein-SRC2-3 peptide and 20 nM Terbium-anti-GST-antibody (Cat# PV3550, Life Technologies, Grand Island, N.Y.) solution (4×) were added to all. The plate was sealed and shaken for 2 min at rt, and incubated at rt for 2 h without agitation. […] The delay and window times were set at 100 and 200 microseconds, respectively. […] The percent control vs. compound concentration data were fit into a four-parameter model, and EC50 values were calculated from the fit as the concentrations corresponding to the inflection points on the concentration-response curves.

[3] = target: T1, LXR α LBD protein; test: LXR α radioligand binding assay (SPA, competition with [3H]TO901317); conditions: read-out: LXRα Binding Ki
[4] = target: LXR β LBD protein (Homo sapiens (Human), UniProt P55055); test: biochemical; assay type: binding; conditions: read-out: LXRβ Binding Ki
[5] = target: Gal4 DNA binding domain fused to the LBD of LXRβ in HEK293 cells (Homo sapiens (Human), UniProt P55055); test: cell-based
[6] = Biological Test Example 2, agonist mode
[7] = Biological Test Example 3, agonist mode

Sequence of LXR β LBD protein (P55055 222-460 limits assumed): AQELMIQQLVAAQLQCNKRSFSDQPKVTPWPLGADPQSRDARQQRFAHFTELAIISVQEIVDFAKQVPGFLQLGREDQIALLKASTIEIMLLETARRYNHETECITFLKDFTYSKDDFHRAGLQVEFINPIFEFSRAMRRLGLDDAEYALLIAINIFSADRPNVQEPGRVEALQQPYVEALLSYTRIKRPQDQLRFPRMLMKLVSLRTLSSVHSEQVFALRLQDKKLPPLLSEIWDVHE
Sequence of Gal4 DNA binding domain fused to the LBD of LXRβ in HEK293 cells (P55055 222-460 limits assumed): as above
Sequence of Gal4 DNA binding domain fused to the LBD of LXRα in HEK293 cells (Q13133 209-447): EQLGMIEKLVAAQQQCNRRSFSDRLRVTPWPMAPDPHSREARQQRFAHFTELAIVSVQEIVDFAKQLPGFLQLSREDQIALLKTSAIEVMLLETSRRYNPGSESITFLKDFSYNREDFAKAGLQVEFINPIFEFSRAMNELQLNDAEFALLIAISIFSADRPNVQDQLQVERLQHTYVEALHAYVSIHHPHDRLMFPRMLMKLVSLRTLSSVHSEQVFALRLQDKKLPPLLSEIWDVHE
T1 sequence (Q13133 209-447): as above

Compound | Cell LXRα efficacy [1] | EC50 [1] [nM] | EC50 ([2]; agonist mode) [nM] | FRET LXRα efficacy ([2]; agonist mode) [%] | EC50 ([1]; agonist mode) [nM] | other results
CS(=O)(=O)c1cccc(N2CCN(C[C@H]3CC[C@@H](C(F)F)CC3)[C@H](c3ccccc3)C2)c1 (single isomer, unassigned) [48-16] | 2437 (10) % | 2440 | 2450 | 17 |  | 
CS(=O)(=O)c1cccc(N2CCN(C[C@H]3CC[C@H](C(F)F)CC3)[C@H](c3ccccc3)C2)c1 (single isomer, unassigned) [48-18] | 18796 (7) % | 18800 | > 50000 |  |  | 
CS(=O)(=O)c1cccc(N2CCN(CC3CCN(CC(F)(F)F)CC3)[C@H](c3ccccc3)C2)c1 (single isomer, unassigned) [48-51] |  |  |  |  |  | EC50 [1, 6]: > 20000 nM; EC50 [2, 7]: 9400 nM; FRET LXRα efficacy [2, 7]: 37%
COC(=O)[C@@H]1CN(c2cccc(S(C)(=O)=O)c2)CCN1C(=O)OC(C)(C)C [1-4, 1-(tert-butyl) 2-methyl (S)-4-(3-(methylsulfonyl)phenyl)piperazine-1,2-dicarboxylate] | 14195 (49) % |  | 13500 | 67 | 14200 | 
CC(C)(C)OC(=O)N1CCN(c2cccc(S(C)(=O)=O)c2)C[C@@H]1c1ccccc1 [1-6, tert-butyl (S)-4-(3-(methylsulfonyl)phenyl)-2-phenylpiperazine-1-carboxylate] |  |  | 8390 | 14 | > 20000 | 
CC(C)(C)OC(=O)N1CCN(c2cccc(S(C)(=O)=O)c2)CC1c1ccc(Br)cc1 (stereo not drawn) [1-12, tert-butyl 2-(4-bromophenyl)-4-(3-(methylsulfonyl)phenyl)piperazine-1-carboxylate] |  |  |  | 46 |  | 
COC(=O)c1ccc(N2CCN(C(=O)OC(C)(C)C)C(c3ccccc3)C2)cc1S(C)(=O)=O (stereo not drawn) [2-3, tert-butyl 4-(4-(methoxycarbonyl)-3-(methylsulfonyl)phenyl)-2-phenylpiperazine-1-carboxylate] |  |  | 34900 | 102 | > 20000 | 
CC(C)[C@@H]1CN(c2ccc(C(N)=O)c(S(C)(=O)=O)c2)CCN1C(=O)OC(C)(C)C [4-1, tert-butyl (R)-4-(4-carbamoyl-3-(methylsulfonyl)phenyl)-2-isopropylpiperazine-1-carboxylate] | 15676 (21) % | 15700 | 14500 | 68 |  | 
CC(C)COC(=O)N1CCN(c2cccc(S(C)(=O)=O)c2)CC1c1ccccc1 (stereo not drawn) [5-5, isobutyl 4-(3-(methylsulfonyl)phenyl)-2-phenylpiperazine-1-carboxylate] | 3049 (6) % |  | 2500 | 33 | 3050 | 
CC(C)OC(=O)N1CCN(c2cccc(S(C)(=O)=O)c2)CC1c1ccccc1 (stereo not drawn) [5-8, isopropyl 4-(3-(methylsulfonyl)phenyl)-2-phenylpiperazine-1-carboxylate] |  |  | 19800 | 41 | > 20000 | 
CC(C)(C)OC(=O)N1CCN(c2cccc(S(C)(=O)=O)c2)C[C@H]1C(C)(C)O [6-1, tert-butyl (S)-2-(2-hydroxypropan-2-yl)-4-(3-(methylsulfonyl)phenyl)piperazine-1-carboxylate] |  | > 20000 | > 50000 |  |  | 
COC(=O)c1cnc(N2CCN(c3cccc(S(C)(=O)=O)c3)C[C@H]2C(C)C)nc1 [7-9, methyl (R)-2-(2-isopropyl-4-(3-(methylsulfonyl)phenyl)piperazin-1-yl)pyrimidine-5-carboxylate] | 3532 (36) % |  | 480 | 57 | 3530 | 
CC(C)(C)C1CN(c2ccc(F)c(S(C)(=O)=O)c2)CCN1c1nccc(C(F)(F)F)n1 (stereo not drawn) [7-29, 2-(2-(tert-butyl)-4-(4-fluoro-3-(methylsulfonyl)phenyl)piperazin-1-yl)-4-(trifluoromethyl)pyrimidine] | 150 (92) % |  | 161 | 101 | 150 | 
CC(C)[C@@H]1CN(c2ccc(C#N)c(S(C)(=O)=O)c2)CCN1c1ccc(C(F)(F)F)cn1 [7-37, (R)-4-(3-isopropyl-4-(5-(trifluoromethyl)pyridin-2-yl)piperazin-1-yl)-2-(methylsulfonyl)benzonitrile] | 1702 (96) % |  | 2640 | 220 | 1700 | 
CC(C)[C@@H]1CN(c2ccc(C#N)c(S(C)(=O)=O)c2)CCN1c1cccc(C(F)(F)F)n1 [7-38, (R)-4-(3-isopropyl-4-(6-(trifluoromethyl)pyridin-2-yl)piperazin-1-yl)-2-(methylsulfonyl)benzonitrile] | 2960 (86) % |  | 3150 | 204 | 2960 | 
CC(C)[C@@H]1CN(c2ccc(C#N)c(S(C)(=O)=O)c2)CCN1c1cc(C(F)(F)F)ccn1 [7-39, (R)-4-(3-isopropyl-4-(4-(trifluoromethyl)pyridin-2-yl)piperazin-1-yl)-2-(methylsulfonyl)benzonitrile] | 1502 (80) % |  | 1430 | 191 | 1500 | 
CS(=O)(=O)c1cccc(N2CCN(c3ccc(C(F)(F)F)cn3)[C@@H](c3ccccc3)C2)c1 [7-40, (S)-4-(3-(methylsulfonyl)phenyl)-2-phenyl-1-(5-(trifluoromethyl)pyridin-2-yl)piperazine] |  |  | 45100 | 70 | > 20000 | 
CS(=O)(=O)c1cccc(N2CCN(Cc3ccccc3)C(c3ccccc3)C2)c1 (stereo not drawn) [46-4, 1-benzyl-4-(3-(methylsulfonyl)phenyl)-2-phenylpiperazine] |  |  | 875 | 41 | > 20000 | 
Cc1nc(C(F)(F)F)ccc1CN1CCN(c2cccc(S(C)(=O)=O)c2)CC1c1ccccc1 (stereo not drawn) [46-47, 1-((2-methyl-6-(trifluoromethyl)pyridin-3-yl)methyl)-4-(3-(methylsulfonyl)phenyl)-2-phenylpiperazine] |  |  |  | 51 |  | 
Cc1cc(CN2CCN(c3cccc(S(C)(=O)=O)c3)CC2c2ccccc2)cnc1C(F)(F)F (stereo not drawn) [46-48, 1-((5-methyl-6-(trifluoromethyl)pyridin-3-yl)methyl)-4-(3-(methylsulfonyl)phenyl)-2-phenylpiperazine] |  |  |  | 47 |  | 
COC(=O)c1ccc(N2CCN(Cc3ccc(C(F)(F)F)nc3)C(c3ccccc3)C2)cc1S(C)(=O)=O (stereo not drawn) [46-59, methyl 2-(methylsulfonyl)-4-(3-phenyl-4-((6-(trifluoromethyl)pyridin-3-yl)methyl)piperazin-1-yl)benzoate] |  |  |  | 109 |  | 
CC(C)[C@H]1CN(c2ccc(CO)c(S(C)(=O)=O)c2)CCN1C[C@H]1CC[C@@H](C(F)(F)F)OC1 [Cpd No 49-1, (4-((S)-3-isopropyl-4-(((3R,6S)-6-(trifluoromethyl)tetrahydro-2H-pyran-3-yl)methyl)piperazin-1-yl)-2-(methylsulfonyl)phenyl)methanol] | 195 (64) % | 195 |  |  |  | Ki [3]: 356 nM; Ki [4]: 37 nM; Cell LXRβ efficacy [5]: 110 (94) %; EC50 [5]: 110 nM
CC(C)[C@H]1CN(c2ccc(CO)c(S(C)(=O)=O)c2)CCN1C[C@@H]1CC[C@@H](C(F)(F)F)OC1 [Cpd No 49-3, (4-((S)-3-isopropyl-4-(((3S,6S)-6-(trifluoromethyl)tetrahydro-2H-pyran-3-yl)methyl)piperazin-1-yl)-2-(methylsulfonyl)phenyl)methanol] | 178 (75) % | 178 |  |  |  | Ki [3]: 166 nM; Ki [4]: 17 nM; Cell LXRβ efficacy [5]: 58 (78) %; EC50 [5]: 58 nM
CC(C)[C@H]1CN(c2ccc(CO)c(S(C)(=O)=O)c2)CCN1C[C@@H]1CC[C@H](C(F)(F)F)OC1 [Cpd No 49-4, (4-((S)-3-isopropyl-4-(((3S,6R)-6-(trifluoromethyl)tetrahydro-2H-pyran-3-yl)methyl)piperazin-1-yl)-2-(methylsulfonyl)phenyl)methanol] | 27 (80) % | 27 |  |  |  | Ki [3]: 44 nM; Ki [4]: 7 nM; Cell LXRβ efficacy [5]: 20 (101) %; EC50 [5]: 20 nM
CC(C)[C@H]1CN(c2cccc(S(C)(=O)=O)c2)CCN1CC1CCCOC1 (stereo partly drawn) [Cpd No 51-1, (2S)-2-isopropyl-4-(3-(methylsulfonyl)phenyl)-1-((tetrahydro-2H-pyran-3-yl)methyl)piperazine] | 7863 (36) % | 7860 |  |  |  | Ki [3]: > 3330 nM; Ki [4]: 1530 nM; Cell LXRβ efficacy [5]: 673 (32) %; EC50 [5]: 673 nM
CC(C)[C@H]1CN(c2cccc(S(C)(=O)=O)c2)CCN1CC1CCC(C(F)(F)F)N(C)C1 (stereo partly drawn) [Cpd No 52-1, (2S)-2-isopropyl-1-((1-methyl-6-(trifluoromethyl)piperidin-3-yl)methyl)-4-(3-(methylsulfonyl)phenyl)piperazine] | 137 (95) % | 137 |  |  |  | Ki [3]: 144 nM; Ki ([4]; Biological Test Example 1): 19 nM; EC50 [5]: 46 nM; Cell LXRβ efficacy [5, 6]: 46 (74) %
